Measurements as given in article PMC11770101, “Nonenzymatic lysine D-lactylation induced by glyoxalase II substrate SLG dampens inflammatory immune responses” (Cell Research, 2025).

Target: T1, glyoxalase II (GLO2) (Mus musculus, UniProt Q99KB8)
T1 construct: gene Hagh
Experiment: LC-MS quantification of accumulated GLO2 substrate SLG in BMDMs treated with […] DiFMOC-G for […] h
Assay type: cell-based

O=C(O)CNC(=O)[C@H](CSC(=O)OCC1c2ccccc2-c2ccccc21)NC(=O)CC[C@H](NC(=O)OCC1c2ccccc2-c2ccccc21)C(=O)O [DiFMOC-G]
LC-MS quantification of accumulated GLO2 substrate SLG in BMDMs treated with 0.4: treatment with DiFMOC-G could dramatically induce SLG accumulation (Fig. 4e), recapitulating changes observed during macrophage activation
